Test results taken from patent US20120010206A1, “IMIDAZOLOPYRIDINE COMPOUNDS USEFUL FOR THE TREATMENT OF DEGENERATIVE AND INFLAMMATORY DISEASES” (priority 2006, published 2012).

Experiments:
TAK1-TAB1 fusion protein = biological target: T1, TAK1-TAB1 fusion protein (Homo sapiens, UniProt O43318); assay: In vitro TAK1 kinase assay (33P-ATP, casein substrate); assay type: biochemical; conditions: semi-quantitative score, at least two independent experiments
T1 construct: purchased Upstate 14-600
T1 sequence (O43318 with tags, fused parts or gaps limits assumed): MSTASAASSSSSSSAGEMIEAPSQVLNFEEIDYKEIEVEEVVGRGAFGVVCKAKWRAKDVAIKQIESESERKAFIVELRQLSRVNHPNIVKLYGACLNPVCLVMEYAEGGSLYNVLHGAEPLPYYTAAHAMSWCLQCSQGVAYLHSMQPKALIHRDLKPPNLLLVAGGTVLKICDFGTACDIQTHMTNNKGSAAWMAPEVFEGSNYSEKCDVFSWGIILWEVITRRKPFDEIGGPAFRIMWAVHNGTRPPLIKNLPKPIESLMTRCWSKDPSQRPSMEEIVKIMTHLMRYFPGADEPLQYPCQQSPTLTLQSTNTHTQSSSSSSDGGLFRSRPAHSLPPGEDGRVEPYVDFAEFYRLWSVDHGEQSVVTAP
How it was run: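 Radiometric assay with active TAK1-TAB1 fusion protein (0.5 mU), 0.1 mg/mL casein, ATP at 5 µM plus [33P]-γ-ATP, in 10 mM MOPS pH 7.0, 1 mM EDTA. Reactions ran 90 min at 30 °C, were stopped with phosphoric acid and filter-counted; percent inhibition from ≥2 experiments gave semi-quantitative potency scores.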

[1] = system: MMP1 expression from activated SFs (RASF); assay: MMP assay: MMP1 expression (ELISA) by TNF-α-triggered RASFs; assay type: cell-based; conditions: RASF triggered with TNFα, MMP1 ELISA after 48 hrs, semi-quantitative score
Protocol: A 384-well format ELISA for measurement of MMP1 is developed. Various primary antibodies are tested, as well as various ELISA protocols. The following protocol is developed and validated to measure MMP1 levels in SF supernatant in 384 well plates: white Lumitrac 600 384 well plates (Greiner) are coated with 2 μg/mL anti-MMP1 antibody MAB1346 (Chemicon). The antibody is diluted in buffer 40 (1.21 g Tris base (Sigma), 0.58 g NaCl (Calbiochem) and 5 mL 10% NaN3 (Sigma) in 1 L milliQ water and adjusted to pH 8.5). After overnight incubation at 4° C., plates are washed with PBS (80 g NaCl, 2 g KCl (Sigma), 11.5 g Na2HPO4.7H2O and 2 g KH2PO4 in 10 L milliQ; pH 7.4) and blocked with 100 μL/well Casein buffer (2% Casein (VWR International) in PBS). Next day, casein buffer is removed from ELISA plates and replaced by 50 μL/well EC buffer (4 g casein, 2.13 g Na2HPO4 (Sigma), 2 g bovine albumin (Sigma), 0.69 g NaH2PO4.H2O (Sigma), 0.5 g CHAPS (Roche), 23.3 g NaCl, 4 mL 0.5 M EDTA pH 8 (Invitrogen), 5 mL 10% NaN3 in 1 L milliQ and adjusted to pH 7.0). 0.25 mM DTT (Sigma) is added to the thawed sample plates. After removal of the EC buffer, 20 μL of sample is transferred to the ELISA plates. After overnight incubation at 4° C. plates are washed twice with PBS and once with PBST (PBS with 0.05% Tween-20 (Sigma)) and incubated with 35 μL/well biotinylated anti-MMP1 antibody solution (R&D). This secondary antibody is diluted in buffer C (0.82 g NaH2PO4.H2O, 4.82 g Na2HPO4, 46.6 g NaCl, 20 g bovine albumin and 4 ml, 0.5M EDTA pH 8 in 2 L milliQ and adjusted to pH 7.0) at a concentration of 5 μg/mL. After 2 h of incubation at RT, plates are washed as described above and incubated with 50 μL/well streptavidin-HRP conjugate (Biosource). Streptavidin-HRP conjugate is diluted in buffer C at a concentration of 0.25 μg/mL. After 45 min, plates are washed as described above and incubated for 5 min with 50 μL/well BM Chem ELISA Substrate (Roche). Readout is performed on the Luminoscan Ascent Luminometer (Labsystems) with an integration time of 200 msec or with an Envision reader (Perkin Elmer).
SFs were acquired at passage 1 from a commercial supplier (Cell applications, Inc.). SFs are cultured in DMEM supplemented with 10% heat-inactivated FBS, 1× penicillin/streptomycin (Invitrogen) at 37° C., 10% CO2 until passage 6. Aliquots of the cells are frozen and cryopreserved in liquid nitrogen. Starting from a cryopreserved aliquot, cells are further expanded by sub-culturing cells at 1/3 ratio every week. Cells between passage 10 and 12 are routinely used in compound testing according to the following protocol.
Starting from the compound master stocks (all at 10 mM concentration in 100% DMSO) a 3-fold serial dilution is made in 96-well plates in 100% DMSO. Then, plates are further diluted 45-fold in M199 medium supplemented with 1% heat-inactivated FBS to obtain a intermediate work stock.
At day 1, RASFs are seeded in 96 well plates (flat bottom, tissue culture treated, Greiner) at a density of 3000 cells/well in complete synovial growth medium (Cell Applications). Day 5, the medium is completely removed from the cells, and replaced by 81 μL of M199 medium supplemented with 1% heat-inactivated FBS followed by addition of 10 μL compound out of the intermediate work stock. After an incubation period of 90 minutes, which allows the compounds to equilibrate and enter the cells, cells are stimulated with either TNF-α or ‘complex trigger’. TNF-α trigger is added in a volume of […] to obtain final concentration of 10 ng/mL. For that, TNF-α stock (PeproTech) at 10 μg/mL was diluted to 100 ng/mL TNF-α in M199 medium supplemented with 1% FBS. ‘Complex trigger’ mix is added in a volume of 20 μL to obtain a final concentration of 12.5%. For that, ‘complex trigger’ mix, is diluted to 80% with M199 medium supplemented with 1% FBS. […]

SMILES	IC50 (TAK1-TAB1 fusion protein) [nM]	EC50 [1] [nM]
CC(C)N1CCN(c2ccc(Nc3ccc(-c4cccc(O)c4)n4ccnc34)cc2)CC1 [Compound 94]	> 3000	> 3000
CS(=O)(=O)c1ccc(Nc2ccc(-c3ccc4c(c3)CNC4=O)n3ccnc23)cc1 [Compound 18, 5-(8-(4-(methylsulfonyl)phenylamino)imi-dazo[1,2-a]pyridin-5-yl)isoindolin-1-one]	101 to 1000	> 3000
O=c1cc(-c2ccc(Nc3ccc(N4CCOCC4)c(F)c3)c3nccn23)cc[nH]1 [Compound 65]	101 to 1000	101 to 1000
CN(C)c1ccc(CNS(=O)(=O)c2ccc(Nc3ccc(-c4ccc5c(c4)CNC5=O)n4ccnc34)cc2)cc1 [Compound 25, N-(4-(dimethylamino)benzyl)-4-(5-(1-oxoisoindolin-5-yl)imidazo[1,2-a]pyridin-8-ylamino)benzene sulfonamide]	101 to 1000	1000 to 3000
Cc1cc(CNC(=O)c2ccc(Nc3ccc(-c4ccc5c(c4)CNC5=O)n4ccnc34)cc2)no1 [Compound 37, N-((5-methylisoxazol-3-yl)methyl)-4-(5-(1-oxoisoindolin-5-yl)imidazo[1,2-a]pyridin-8-ylamino)benzamide]	1000 to 3000	1000 to 3000
O=C(NCCN1CCCC1)c1ccc(Nc2ccc(-c3ccc4c(c3)CNC4=O)n3ccnc23)cc1 [Compound 34, 4-(5-(1-oxoisoindolin-5-yl)imidazo[1,2-a]pyridin-8-ylamino)-N-(2-(pyrrolidin-1-yl)ethyl)benzamide]	< 100	> 3000
CCC(CC)N1CCN(c2ccc(Nc3ccc(-c4cc[nH]c(=O)c4)n4ccnc34)cc2)CC1 [Compound 87]	101 to 1000	101 to 1000
CN1CCN(c2ccc(Nc3ccc(-c4cn[nH]c4)n4ccnc34)c(F)c2)CC1 [Compound 7, [2-Fluoro-4-(4-methyl-piperazin-1-yl)-phenyl]-[5-(1H-pyrazol-4-yl)-imidazo[1,2-a]pyridin-8-yl]amine]	101 to 1000	101 to 1000
CN1CCN(c2ccc(Nc3ccc(-c4ccc(C(N)=O)cc4)n4ccnc34)cc2F)CC1 [Compound 63]	101 to 1000	> 3000
CC(C)N1CCN(C(=O)c2ccc(Nc3ccc(-c4ccc5c(c4)CNC5=O)n4ccnc34)cc2)CC1 [Compound 48, 5-(8-(4-(4-isopropylpiperazine-1-carbonyl)phenylamino)imidazo [1,2-a]pyridin-5-yl)isoindolin-1-one]	< 100	> 3000
CC(C)N1CCN(c2ccc(Nc3ccc(-c4cccc5[nH]ccc45)n4ccnc34)cc2)CC1 [Compound 75]	101 to 1000	> 3000
O=C(Nc1ccccc1)c1ccc(Nc2ccc(-c3ccc4c(c3)CNC4=O)n3ccnc23)cc1 [Compound 17, 4-(5-(1-oxoisoindolin-5-yl)imidazo[1,2-a]pyridin-8-ylamino)-N-phenylbenzamide]	1000 to 3000	> 3000
CC(C)N1CCC(c2ccc(Nc3ccc(-c4cc[nH]c(=O)c4)n4ccnc34)cc2)CC1 [Compound 96]	101 to 1000	1000 to 3000
CN(C)CCCNC(=O)c1ccc(Nc2ccc(-c3ccc4c(c3)CNC4=O)n3ccnc23)cc1 [Compound 50, -(3-(dimethylamino)propyl)-4-(5-(1-oxoisoindolin-5-yl)imidazo[1,2-a]pyridin-8-ylamino)benzamide]	101 to 1000	> 3000
NC(=O)c1ccc(-c2ccc(Nc3ccc(N4CCOCC4)c(F)c3)c3nccn23)cc1F [Compound 67]	> 3000	101 to 1000
O=C(NCCCN1CCCC1)c1ccc(Nc2ccc(-c3ccc4c(c3)CNC4=O)n3ccnc23)cc1 [Compound 51, 4-(5-(1-oxoisoindolin-5-yl)imidazo[1,2-a]pyridin-8-ylamino)-N-(3-(pyrrolidin-1-yl)propyl)benzamide]	101 to 1000	> 3000
CNC(=O)C1CCN(C(=O)c2ccc(Nc3ccc(-c4ccc5c(c4)CNC5=O)n4ccnc34)cc2)CC1 [Compound 41, N-methyl-1-(4-(5-(1-oxoisoindolin-5-yl)imidazo[1,2-a]pyridin-8-ylamino)benzoyl) piperidine-4-carboxamide]	101 to 1000	> 3000
COCCN(C)C(=O)c1ccc(Nc2ccc(-c3ccc4c(c3)CNC4=O)n3ccnc23)cc1 [Compound 38, N-(2-methoxyethyl)-N-methyl-4-(5-(1-oxoisoindolin-5-yl)imidazo[1,2-a]pyridin-8-ylamino)benzamide]	101 to 1000	> 3000
COc1cc(-c2ccc(Nc3ccc(N4CCN(C(C)C)CC4)cc3)c3nccn23)ccc1O [Compound 95]	101 to 1000	> 3000
O=C1NCc2cc(-c3ccc(Nc4ccc(S(=O)(=O)NC5CCNC5)cc4)c4nccn34)ccc21 (stereo not drawn) [Compound 32, 4-(5-(1-oxoisoindolin-5-yl)imidazo[1,2-a]pyridin-8-ylamino)-N-(pyrrolidin-3-yl)benzene sulfonamide]	101 to 1000	> 3000
CC(C)N1CCN(c2ccc(Nc3ccc(-c4csc(C(N)=O)c4)n4ccnc34)cc2F)CC1 [Compound 9, 4-{8-[3-Fluoro-4-(4-isopropyl-piperazin-1-yl)-phenylamino]-imidazo[1,2-a]pyridin-5-yl}-thiophene-2-carboxylic acid amide]	1000 to 3000	1000 to 3000
CC(C)N1CCN(c2ccc(Nc3ccc(-c4cc[nH]c(=O)c4)n4ccnc34)cc2)CC1 [Compound 74]	< 100	101 to 1000
O=c1cc(-c2ccc(Nc3ccc(N4CCN(C5CCCCC5)CC4)cc3)c3nccn23)cc[nH]1 [Compound 90]	101 to 1000	101 to 1000
CCCN1CCN(c2ccc(Nc3ccc(-c4cc[nH]c(=O)c4)n4ccnc34)cc2)CC1 [Compound 84]	101 to 1000	101 to 1000
